A melting point compilation (Tetko et al.; mined from patent text by program, amines drawn as free bases though some values may be those of a salt)

SMILES | melting point [°C]
N#Cc1ccc2oc(CCc3ccc(C(=O)O)cc3)cc2c1 | 234 to 235
Cc1ccc2cc(-c3cccs3)ccc2n1 | 87
CN1CCCc2cc(C(C)(C(=O)O)c3ccc4c(c3)CCCN4C)ccc21 | 155 to 157
S=c1nc2c(-c3ccccc3)cccn2c(=S)n1-c1ncccc1-c1ccccc1 | 90 to 92
CC1NC(=O)NN=C1c1ccccc1 (stereo not drawn) | 214
Cc1cc(C(=O)Nc2ccccc2O)cc(Cl)c1O | 192 to 194
C=C(c1ccc(OC)c(N)c1)c1ccc(OC)c(OCC)c1 | 91 to 93
O=CNNc1ccc(NC(=S)N2CCCC2)cc1 | 199 to 201
CC1CC(CN2CCNC2=N[N+](=O)[O-])CO1 (stereo not drawn) | 109 to 110
COC(=O)C(=O)c1ccccc1COc1ccc(-c2ccccc2)cc1 | 106 to 107
COc1cccc2c(=O)nc(-c3ccccn3)sc12 | 191
Cn1ccnc1Sc1c(Cl)cccc1[N+](=O)[O-] | 102 to 104
CC1C(=O)OC2=C(CSc3ccccc32)C1=O (stereo not drawn) | 275 to 277
Clc1ccc(C2OC3(CCN(Cc4ccccc4)CC3)N3CCCCC23)cc1 (stereo not drawn) | 134 to 136
CCOC(=O)Cc1sc(Sc2cc(C(=O)OC)c3ccccc3n2)nc1C | 128 to 131
CN(C)S(=O)(=O)c1nnc(N)s1 | 188 to 190
CCS(=O)(=O)Nc1nc(CN2CCN(C(c3ccccc3)c3ccccc3)CC2)cs1 | 159 to 160
O=P(O)(O)C(NCCCCOc1ccccc1)P(=O)(O)O | 206 to 208
Cc1oc(-c2ccccc2)nc1C(=O)COc1ccc(CC2SC(=O)NC2=O)cc1 (stereo not drawn) | 168 to 169
Cc1c(NC(=O)CC(C)(C)C)cc2c(c1C)OCC2c1ccc(C(C)C)cc1 (stereo not drawn) | 177 to 178
N#Cc1ccsc1C1=CC(=O)Nc2cc(-c3ccccc3F)c(O)cc2N1 | 242
OCC1OC(OCc2ccccc2)C(O)C1O (stereo not drawn) | 95
CCC=C1C([N+](=O)[O-])C2SCCCN2C(=O)N1C (stereo not drawn) | 155 to 156
CCCc1ccc(C=NN=Cc2ccc(F)c(F)c2)cc1 | 50
CN1C(=O)C(c2ccc(OC(F)F)cc2)(c2cccc(CCCC#N)c2)N=C1N (stereo not drawn) | 75

SMILES | melting point [°C]
CCn1nc(-c2ccccc2F)nc1-c1ccccc1C(F)(F)F | 72 to 74
O=Cc1cc2cc(OCc3ccccc3)c(F)cc2nc1I | 210
Cn1c(=O)[nH]c(=O)n(-c2ccc(F)cc2Cl)c1=O | 225 to 228
C=CCOC1OC(C)C(OCc2ccccc2)C(OCc2ccccc2)C1OC1OC(C)C(OCc2ccccc2)C(OCc2ccccc2)C1O (stereo not drawn) | 98 to 99
CCC(=O)OCC(=O)Nc1nc2ccc(OC)cc2s1 | 145 to 147
O=C(C1CC1)N1CCC2(CC1)OC(c1ccccc1)C1CCCCN12 (stereo not drawn) | 110 to 114
N#Cc1nn(-c2c(Cl)cc(C(F)(F)F)cc2Cl)c(N)c1-c1cc(Cl)oc1Cl | 193 to 194
SC1=Nc2ccccc2SN1 | 198 to 199
COC(=O)C1Oc2ccc(F)cc2C(C)(c2ccccc2)O1 (stereo not drawn) | 95
COc1ccc(-c2ccc(N)cc2)cc1OC1CCCC1 | 94 to 95
CN(C)/C(=C1/Sc2ccccc2C1=O)c1ccccc1 | 179 to 180
NS(=O)(=O)c1ccc(-c2cccn2-c2ccc(F)cc2)cc1 | 160 to 161
COC(=O)c1cc2c([nH]c1=O)CCCCCC2 | 220 to 224
C=C(c1ccccc1)S(=O)(=O)c1ccc(C(C)(C)C)cc1 | 99
Cc1cc(OCc2sc(-c3ccc(C(F)(F)F)cc3)nc2C)ccc1CCC(=O)O | 141 to 143
COc1ccc(C2(c3ccc(N(C)C)cc3)OC(=O)c3cc(N(C)C)ccc32)cc1 (stereo not drawn) | 156 to 161
CN(C)C(=O)NCc1cccc(-c2nc(=O)c3ccccc3s2)n1 | 175 to 176
CCCNC(=O)C1(CCCCN2CCC(N3Cc4ccccc4C3=O)CC2)CCc2ccccc21 (stereo not drawn) | 61 to 63
O=C(c1cc(C(F)(F)F)cc(C(F)(F)F)c1)N1CCN(C(=O)CNC2CCN(Cc3ccccc3)CC2)C(c2ccccc2)C1 (racemic) | 65 to 67
CC(C)CCNC(=O)C(c1ccccc1)c1ccccc1 | 128
CC1COCc2nc3c(N)nc4cc(CCS(C)(=O)=O)ccc4c3n21 (stereo not drawn) | 205 to 206
O=C(O)c1ccc(OCC2CCCCC2)c([N+](=O)[O-])c1 | 200 to 202
Cc1cccc(S(=O)(=O)n2c(CCCC(=O)O)cc3nc(Cl)ccc32)c1 | 165
COc1cc(OC)nc(Oc2cccc(NC(=O)C(C)(C)C)c2C(=O)O)n1 | 192 to 195
CC(C)(C)C(=O)C(Br)C(c1ccc(Cl)cc1)S(=O)(=O)c1ccccc1 (stereo not drawn) | 167 to 168

SMILES | melting point [°C]
COc1ccc2c(c1OC)CCN(CCc1ccc([N+](=O)[O-])cc1)C2 | 97
OCc1cc(NCCCCCCBr)ccc1O | 132 to 134
CC(=O)c1cccc2cc3ccccc3cc12 | 106
CCOC(=O)c1ncsc1-c1cccc(OCc2cccc(C#N)c2)c1 | 85
CC1CC(=O)c2cccc(C(N)=S)c21 (stereo not drawn) | 198 to 200
Cc1nc(-c2cccc(Nc3ccc(I)cc3[N+](=O)[O-])c2)cs1 | 137 to 138
CCCC(C1CCCCC1)n1c(C(=O)OC)cnc1S (stereo not drawn) | 181
Clc1ccc(-c2ccccc2OCC2CO2)nn1 (stereo not drawn) | 118 to 119
C=C(ON1C(=O)[C@@H](NC(=O)OC(C)(C)C)[C@@H]1C)C(=O)O | 127 to 130
CCCCOc1c(CNC(=O)OC(C)(C)C)n(CC(C)C)c(=O)c2ccc(-c3nc(C(=O)OCC)cs3)cc12 | 172
Cn1ncnc1COc1nn2c(-c3ccccc3)nnc2cc1C1CCC1 | 228
COc1ccc(C=C2c3ccccc3C(=O)c3ccccc32)cc1OCC(=O)N1CCC(CO[N+](=O)[O-])CC1 | 63 to 65
O=C1c2ccccc2C(O)N1CCCN1CCN(c2ccc(O)cc2)CC1 (stereo not drawn) | 190
O=C(O)C1=CSC2C(=Cc3cc4c(s3)-c3cccnc3SC4)C(=O)N12 (stereo not drawn) | 113 to 115
Cn1c(C(=O)O)cc2c(OCc3ccccc3)cccc21 | 217
Cc1nc2cccc3c(=O)n(CCCCNS(=O)(=O)C(F)(F)F)c(=O)c1n23 | 181 to 182
O=C(NS(=O)(=O)NCCc1ccccc1)OCc1ccccc1 | 120 to 121
COc1ccc(C2=NN(c3ccc4c(c3)COC4=O)C(=O)[C@H]3CC=CC[C@@H]23)cc1Cl (relative stereo) | 212 to 213
CC1(C)Cc2c(c(N3CCCC3)nc3sc4c(NCc5cccnc5)ncnc4c23)CO1 | 289 to 290
CCOC(=O)[C@H](Cc1ccc(N)cc1)NC(=O)c1ccccc1 | 120 to 122
C#Cc1cc(C(C)(C)C)cc(C(C)(C)C)c1OCC | 46 to 47
Cc1ccc(-c2cc(C(=O)C=Cc3ccc(C(=O)O)cc3)cc(C(C)(C)C)c2OCC(C)C)cc1 | 243
COc1ccc(CNc2ccncc2)c2c1OCC2C (stereo not drawn) | 138 to 145
